From US12492188B2, “1H-benzo[D]imidazole derivatives as TLR9 inhibitors for the treatment of fibrosis” (BRISTOL-MYERS SQUIBB COMPANY, priority 2020, dated 2025)
pIC50: −log10 of the molar value. Read-outs that look alike come from different tables or passages of the source.

How the values were obtained:
Assay type in all cases: cell-based
[1] = target: T1, human TLR9 (Homo sapiens, UniProt Q9NR96); assay: TLR9 inhibition reporter assay (HEK-Blue cells, secreted embryonic alkaline phosphatase reporter)
T1 construct: host or cells: HEK-Blue cells (HEK293-derived reporter line)
T1 sequence (Q9NR96 26-1032): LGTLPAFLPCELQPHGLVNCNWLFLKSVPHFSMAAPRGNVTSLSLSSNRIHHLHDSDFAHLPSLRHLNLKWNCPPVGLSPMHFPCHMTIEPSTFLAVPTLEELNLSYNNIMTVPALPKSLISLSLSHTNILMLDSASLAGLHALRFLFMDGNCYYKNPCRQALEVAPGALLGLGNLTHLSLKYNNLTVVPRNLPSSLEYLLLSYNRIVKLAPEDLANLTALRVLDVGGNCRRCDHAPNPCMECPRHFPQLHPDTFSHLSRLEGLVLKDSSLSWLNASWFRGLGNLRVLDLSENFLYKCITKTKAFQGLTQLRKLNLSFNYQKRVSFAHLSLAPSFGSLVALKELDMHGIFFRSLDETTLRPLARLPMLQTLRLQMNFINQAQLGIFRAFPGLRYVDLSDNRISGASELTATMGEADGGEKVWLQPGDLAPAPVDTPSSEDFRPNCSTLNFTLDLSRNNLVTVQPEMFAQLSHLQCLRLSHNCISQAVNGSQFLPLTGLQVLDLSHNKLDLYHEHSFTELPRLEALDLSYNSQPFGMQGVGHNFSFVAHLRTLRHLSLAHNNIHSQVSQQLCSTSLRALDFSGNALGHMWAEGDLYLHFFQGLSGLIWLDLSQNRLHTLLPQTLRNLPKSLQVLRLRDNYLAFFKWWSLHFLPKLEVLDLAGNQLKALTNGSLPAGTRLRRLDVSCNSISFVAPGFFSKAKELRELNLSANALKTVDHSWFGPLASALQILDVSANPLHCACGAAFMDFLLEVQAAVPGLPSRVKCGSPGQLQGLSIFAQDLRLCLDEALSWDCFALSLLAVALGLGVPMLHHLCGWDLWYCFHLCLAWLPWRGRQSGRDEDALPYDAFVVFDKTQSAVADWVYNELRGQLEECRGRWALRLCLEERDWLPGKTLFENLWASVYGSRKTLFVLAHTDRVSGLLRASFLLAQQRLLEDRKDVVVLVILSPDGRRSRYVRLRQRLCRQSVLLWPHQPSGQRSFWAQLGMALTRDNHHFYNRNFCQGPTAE
Procedure, shortened: (§1)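 Read-out is SEAP colour from HEK-Blue Detection medium after 22 h at 37 °C, converted to percent inhibition between agonist-plus-DMSO and reference-inhibitor wells. Receptor-overexpressing HEK-Blue cells received compound over 0.05 nM–50 μM for 30 min before agonist: gardiquimod 7.5 μM for TLR7, R848 15.9 μM for TLR8, ODN2006 5 nM for TLR9.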

[2] = target: T2, human TLR8 (Homo sapiens, UniProt Q9NR97); assay: TLR8 inhibition reporter assay (HEK-Blue cells, secreted embryonic alkaline phosphatase reporter); conditions: HEK-Blue cells overexpressing human TLR8, stimulated with R848 15.9 μM; read-out: TLR 8 IC50
T2 construct: host or cells: HEK-Blue cells (HEK293-derived reporter line)
T2 sequence (Q9NR97 27-1041): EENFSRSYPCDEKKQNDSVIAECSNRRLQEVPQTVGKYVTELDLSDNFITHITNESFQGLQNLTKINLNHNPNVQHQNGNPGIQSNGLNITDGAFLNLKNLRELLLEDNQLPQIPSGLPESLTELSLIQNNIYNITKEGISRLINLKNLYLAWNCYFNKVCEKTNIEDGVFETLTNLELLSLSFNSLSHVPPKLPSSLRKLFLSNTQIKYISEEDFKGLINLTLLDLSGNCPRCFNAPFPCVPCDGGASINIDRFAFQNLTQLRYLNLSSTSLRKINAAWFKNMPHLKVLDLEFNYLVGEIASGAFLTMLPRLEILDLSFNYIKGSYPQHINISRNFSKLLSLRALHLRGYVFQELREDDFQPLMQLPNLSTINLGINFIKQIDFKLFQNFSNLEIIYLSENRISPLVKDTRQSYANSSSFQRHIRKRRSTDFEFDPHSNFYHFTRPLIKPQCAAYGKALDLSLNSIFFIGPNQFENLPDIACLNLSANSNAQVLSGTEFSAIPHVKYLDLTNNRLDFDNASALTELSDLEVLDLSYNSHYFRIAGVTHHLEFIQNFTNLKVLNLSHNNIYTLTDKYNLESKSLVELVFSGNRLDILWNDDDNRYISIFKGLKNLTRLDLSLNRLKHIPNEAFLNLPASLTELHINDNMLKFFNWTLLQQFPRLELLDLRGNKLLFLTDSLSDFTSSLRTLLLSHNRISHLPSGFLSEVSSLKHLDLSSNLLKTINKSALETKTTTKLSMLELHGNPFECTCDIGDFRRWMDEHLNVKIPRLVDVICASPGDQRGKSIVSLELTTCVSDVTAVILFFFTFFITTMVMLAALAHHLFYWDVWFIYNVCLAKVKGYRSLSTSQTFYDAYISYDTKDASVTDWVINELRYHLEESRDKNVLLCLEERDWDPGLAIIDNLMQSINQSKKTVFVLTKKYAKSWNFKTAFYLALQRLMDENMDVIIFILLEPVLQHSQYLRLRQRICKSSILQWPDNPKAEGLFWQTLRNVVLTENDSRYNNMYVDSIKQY
Procedure, shortened: as §1

[3] = target: T3, human TLR7 (Homo sapiens, UniProt Q9NYK1); assay: TLR7 inhibition reporter assay (HEK-Blue cells, secreted embryonic alkaline phosphatase reporter); conditions: HEK-Blue cells overexpressing human TLR7, stimulated with gardiquimod 7.5 μM; read-out: TLR 7 IC50
T3 construct: host or cells: HEK-Blue cells (HEK293-derived reporter line)
T3 sequence (Q9NYK1 27-1049): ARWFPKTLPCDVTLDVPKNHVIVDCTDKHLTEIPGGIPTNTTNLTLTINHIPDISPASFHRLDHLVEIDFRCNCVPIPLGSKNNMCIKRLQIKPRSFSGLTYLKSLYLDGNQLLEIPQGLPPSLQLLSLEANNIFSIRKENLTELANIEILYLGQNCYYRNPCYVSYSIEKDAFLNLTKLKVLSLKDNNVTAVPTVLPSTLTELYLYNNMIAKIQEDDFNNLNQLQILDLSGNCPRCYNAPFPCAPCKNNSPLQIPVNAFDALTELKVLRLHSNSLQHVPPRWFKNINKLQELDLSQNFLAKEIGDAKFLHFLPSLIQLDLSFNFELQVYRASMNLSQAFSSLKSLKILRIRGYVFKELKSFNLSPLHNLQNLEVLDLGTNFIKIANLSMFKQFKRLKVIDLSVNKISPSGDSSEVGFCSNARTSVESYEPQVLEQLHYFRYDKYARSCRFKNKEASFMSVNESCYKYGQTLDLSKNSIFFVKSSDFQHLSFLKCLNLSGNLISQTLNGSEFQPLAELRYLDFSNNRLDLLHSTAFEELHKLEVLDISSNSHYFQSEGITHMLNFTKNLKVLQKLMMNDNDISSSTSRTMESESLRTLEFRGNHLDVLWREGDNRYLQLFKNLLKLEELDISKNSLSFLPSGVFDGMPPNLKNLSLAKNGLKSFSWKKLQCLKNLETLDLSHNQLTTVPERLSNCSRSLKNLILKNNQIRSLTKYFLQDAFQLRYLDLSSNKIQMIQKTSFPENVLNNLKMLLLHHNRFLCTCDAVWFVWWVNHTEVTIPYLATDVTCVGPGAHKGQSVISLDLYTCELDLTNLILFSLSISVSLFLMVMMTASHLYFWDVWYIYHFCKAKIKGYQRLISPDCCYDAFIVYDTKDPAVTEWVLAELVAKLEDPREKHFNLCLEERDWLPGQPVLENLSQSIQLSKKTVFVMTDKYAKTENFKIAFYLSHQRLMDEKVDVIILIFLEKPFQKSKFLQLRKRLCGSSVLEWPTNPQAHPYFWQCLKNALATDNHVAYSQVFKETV
Procedure, shortened: as §1

[4] = HEK-Blue cells overexpressing human TLR9, stimulated with ODN2006 5 nM, read-out: TLR 9 IC50
[5] = HEK-Blue human TLR9 reporter cells

Row | pIC50 [1] | pIC50 [1, 4] | pIC50 [2] | pIC50 [3] | pIC50 [1, 5] | SMILES
1 | 7.29 | 7.29 | < 4.30 | 4.58 |  | Cn1c(-c2ccc(S(C)(=O)=O)cc2)nc2ccc(C3CCN(C4CC5CCC(C4)N5C4CCOCC4)CC3)c(F)c21 (centres unmarked) [Example 274, 7-fluoro-1-methyl-2-(4-(methylsulfonyl)phenyl)-6-(1-(8-(tetrahydro-2H-pyran-4-yl)-8-azabicyclo[3.2.1]octan-3-yl)piperidin-4-yl)-1H-benzo[d]imidazole]
2 | 7.05 | 7.05 | < 4.30 | < 4.30 |  | Cn1c(-c2ccc(S(C)(=O)=O)cc2)nc2ccc(C3CCN(C4CC5CCC(C4)N5C4CCOCC4)CC3)c(F)c21 (centres unmarked) [Example 275, 7-fluoro-1-methyl-2-(4-(methylsulfonyl)phenyl)-6-(1-(8-(tetrahydro-2H-pyran-4-yl)-8-azabicyclo[3.2.1]octan-3-yl)piperidin-4-yl)-1H-benzo[d]imidazole]
3 | 7.24 | 7.24 | < 4.30 | 5.05 |  | CC(C)CN1CCC(N2CCC(c3cc(F)c4nc(-c5ccc(S(C)(=O)=O)cc5)n(C)c4c3)CC2)CC1 [Example 278, 4-fluoro-6-(1′-isobutyl-[1,4′-bipiperidin]-4-yl)-1-methyl-2-(4-(methylsulfonyl)phenyl)-1H-benzo[d]imidazole]
4 | 5.92 | 5.91 | < 4.30 | 4.71 |  | Cn1c(-c2ccc(S(C)(=O)=O)cc2)nc2c(F)cc(C3CCN(C4CCN(C5COC5)CC4)CC3)cc21 [Example 279, 4-fluoro-1-methyl-2-(4-(methylsulfonyl)phenyl)-6-(1′-(oxetan-3-yl)-[1,4′-bipiperidin]-4-yl)-1H-benzo[d]imidazole]
5 | 7.14 | 7.14 | < 4.30 | 6.15 |  | Cn1c(-c2ccc(S(C)(=O)=O)cc2)nc2c(F)cc(C3CCN(C4CCN(C5CCOCC5)CC4)CC3)cc21 [Example 280, 4-fluoro-1-methyl-2-(4-(methylsulfonyl)phenyl)-6-(1′-(tetrahydro-2H-pyran-4-yl)-[1,4′-bipiperidin]-4-yl)-1H-benzo[d]imidazole]
6 | 6.92 | 6.91 | < 4.30 | 5.15 |  | COCCN1CCC(N2CCC(c3cc(F)c4nc(-c5ccc(S(C)(=O)=O)cc5)n(C)c4c3)CC2)CC1 [Example 281, 4-fluoro-6-(1′-(2-methoxyethyl)-[1,4′-bipiperidin]-4-yl)-1-methyl-2-(4-(methylsulfonyl)phenyl)-1H-benzo[d]imidazole]
7 |  | 6.93 | < 4.30 | 5.28 | 6.92 | CC(C)CN1C2CCC1CC(N1CCC(c3cc(F)c4nc(-c5ccc(S(C)(=O)=O)cc5)n(C)c4c3)CC1)C2 (centres unmarked) [Example 284, 4-fluoro-6-(1-(8-isobutyl-8-azabicyclo[3.2.1]octan-3-yl)piperidin-4-yl)-1-methyl-2-(4-(methylsulfonyl)phenyl)-1H-benzo[d]imidazole]
8 |  | 6.61 | < 4.30 | 5.32 | 6.60 | CC(C)CN1C2CCC1CC(N1CCC(c3cc(F)c4nc(-c5ccc(S(C)(=O)=O)cc5)n(C)c4c3)CC1)C2 (centres unmarked) [Example 285, 4-fluoro-6-(1-(8-isobutyl-8-azabicyclo[3.2.1]octan-3-yl)piperidin-4-yl)-1-methyl-2-(4-(methylsulfonyl)phenyl)-1H-benzo[d]imidazole]
9 |  | 7.39 | < 4.30 | 4.54 | 7.39 | Cn1c(-c2ccc(S(C)(=O)=O)cc2)nc2c(F)cc(C3CCN(C4CC5CCC(C4)N5C4COC4)CC3)cc21 (centres unmarked) [Example 286, 4-fluoro-1-methyl-2-(4-(methylsulfonyl)phenyl)-6-(1-(8-(oxetan-3-yl)-8-azabicyclo[3.2.1]octan-3-yl)piperidin-4-yl)-1H-benzo[d]imidazole]
10 |  | 7.66 | < 4.30 | 4.85 | 7.66 | CC(C)CN1CCCC(N2CCC(c3cc(F)c4nc(-c5ccc(S(C)(=O)=O)cc5)n(C)c4c3)CC2)CC1 (centres unmarked) [Example 296, 4-fluoro-6-(1-(1-isobutylazepan-4-yl)piperidin-4-yl)-1-methyl-2-(4-(methylsulfonyl)phenyl)-1H-benzo[d]imidazole]
11 |  | 7.64 | < 4.30 | 4.90 | 7.64 | CC(C)CN1CCCC(N2CCC(c3cc(F)c4nc(-c5ccc(S(C)(=O)=O)cc5)n(C)c4c3)CC2)CC1 (centres unmarked) [Example 297, 4-fluoro-6-(1-(1-isobutylazepan-4-yl)piperidin-4-yl)-1-methyl-2-(4-(methylsulfonyl)phenyl)-1H-benzo[d]imidazole]
